Common to all, as to type: functional
The subject of assay [1] is Allium tuberosum. The assay can be described thus: Root growth inhibition of Allium tuberosum seedling at 1 x 10^-3 M after 10 days by agar dilution method relative to control. As to conditions: 240 h, read-out: GI. On the technique in general: Agar dilution tests growth on a series of plates holding different concentrations.
For assay [2], the system named is Brassica rapa subsp. oleifera. The assay can be described thus: Root growth inhibition of Brassica rapa subsp. oleifera seedling at 1 x 10^-3 M after 7 days by agar dilution method relative to control. As to conditions: 168 h, read-out: GI.
Assay [3] has as its system Allium tuberosum. The assay can be described thus: Root growth promotion of Allium tuberosum seedling at 1 x 10^-3 M after 10 days by agar dilution method relative to control. Conditions: 240 h, read-out: GI.
Assay [4] deals with Allium tuberosum. The assay can be described thus: Root growth inhibition of Allium tuberosum seedling at 1 x 10^-4 M after 10 days by agar dilution method relative to control. Conditions: 240 h, read-out: GI.
The subject of assay [5] is Allium tuberosum. The assay can be described thus: Root growth inhibition of Allium tuberosum seedling at 5 x 10^-5 M after 10 days by agar dilution method relative to control. Conditions: 240 h, read-out: GI.
Assay [6] relates to Allium tuberosum. The assay can be described thus: Root growth inhibition of Allium tuberosum seedling at 5 x 10^-4 M after 10 days by agar dilution method relative to control. Conditions: 240 h, read-out: GI.
Assay [7] relates to Brassica rapa subsp. oleifera. The assay can be described thus: Root growth inhibition of Brassica rapa subsp. oleifera seedling at 5 x 10^-5 M after 7 days by agar dilution method relative to control. As to conditions: 168 h, read-out: GI.
Assay [8] has as its system Brassica rapa subsp. oleifera. The assay can be described thus: Root growth inhibition of Brassica rapa subsp. oleifera seedling at 1 x 10^-4 M after 7 days by agar dilution method relative to control. As to conditions: 168 h, read-out: GI.
Assay [9] relates to Brassica rapa subsp. oleifera. The assay can be described thus: Root growth inhibition of Brassica rapa subsp. oleifera seedling at 5 x 10^-4 M after 7 days by agar dilution method relative to control. Conditions: 168 h, read-out: GI.

Experimental findings from ChEMBL document CHEMBL3046487, “Preparation and root growth-modulatory activity of N-substituted 2-acetylamino-2-ethoxycarbonyl-3-(2-furyl)propanamides” (2001) are described below.

Regarding `CCOC(=O)C(Cc1ccco1)(NC(C)=O)C(=O)OCC`, the inhibition of growth at 1000 µM with Allium tuberosum [1] is 4%; in assay [2] it was 26%.

As for `CCOC(=O)C(Cc1ccco1)(NC(C)=O)C(=O)O` (configuration not stated), the inhibition of growth at 1000 µM with Allium tuberosum [1] was 47%; in assay [2], 66%.

`CCOC(=O)C(Cc1ccco1)(NC(C)=O)C(=O)Nc1ccccc1` (racemic): the inhibition of growth at 1000 µM with Allium tuberosum [1] was 7%; in assay [2] it was 3%.

Turning to `CCCCNC(=O)C(Cc1ccco1)(NC(C)=O)C(=O)OCC` (racemic), the values for the inhibition of growth at 1000 µM (in the assay on Allium tuberosum [1]; in assay [2]) were 4% and 9%, respectively.

As to `CCOC(=O)C(Cc1ccco1)(NC(C)=O)C(=O)Nc1ccc(Cl)cc1` (racemic), the inhibition of growth at 1000 µM with Allium tuberosum [3] came to 14%; in assay [2] it was 49%.

Turning to `CCOC(=O)C(Cc1ccco1)(NC(C)=O)C(=O)NCc1ccco1` (racemic), the inhibition of growth at 1000 µM with Allium tuberosum [3] worked out at 36%; in assay [2], 13%.

`CCOC(=O)C(Cc1ccco1)(NC(C)=O)C(=O)Nc1nccs1` (racemic): the inhibition of growth at 1000 µM in the assay with Allium tuberosum [1] stood at 29%; in assay [2] it was 53%.

Regarding `CCOC(=O)C(Cc1ccco1)(NC(C)=O)C(=O)Nc1ncc(C)s1` (racemic), the inhibition of growth at 1000 µM with Allium tuberosum [1] was found to be 42%; in [2], 61%.

As for `CCOC(=O)C(Cc1ccco1)(NC(C)=O)C(=O)Nc1ncc([N+](=O)[O-])s1` (racemic), the values for the inhibition of growth at 1000 µM (with Allium tuberosum [1]; in [2]) were 54% and 94%, respectively.

Turning to `CCOC(=O)C(Cc1ccco1)(NC(C)=O)C(=O)Nc1ncc(Br)s1` (racemic), the inhibition of growth at 100 µM is 50% in the assay on Allium tuberosum [4] and 80% in assay [8]. For the same compound, the results for the inhibition of growth at 50 µM (with Allium tuberosum [5]; in assay [7]) were 30% and 21%, respectively. In addition, the inhibition of growth at 500 µM in the assay on Allium tuberosum [6] worked out at 53%; in assay [9], 98%. Moreover, the inhibition of growth at 1000 µM is 56% in the assay with Allium tuberosum [1] and 100% in assay [2].

For `CCOC(=O)C(Cc1ccco1)(NC(C)=O)C(=O)Nc1nc2c(Cl)cccc2s1` (racemic), the inhibition of growth at 100 µM is 10% in the assay with Allium tuberosum [4] and 50% in assay [8]. The inhibition of growth at 50 µM in the assay on Allium tuberosum [5] was found to be 10%; in assay [7], 41%. For the same compound, the inhibition of growth at 500 µM with Allium tuberosum [6] amounted to 50%; in assay [9], 91%. For the same compound, the inhibition of growth at 1000 µM in the assay with Allium tuberosum [1] came out at 70%; in assay [2] it was 100%.

Regarding `O=C(O)COc1ccc(Cl)cc1Cl` [2,4-DICHLOROPHENOXYACETIC ACID], the inhibition of growth at 100 µM in the assay on Allium tuberosum [4] was 99%; in assay [8], 98%. In addition, the inhibition of growth at 50 µM was 97% with Allium tuberosum [5] and 98% in assay [7]. The inhibition of growth at 500 µM with Allium tuberosum [6] was determined as 100%; in assay [9], 99%. In addition, the inhibition of growth at 1000 µM (in the assay on Allium tuberosum [1]; in [2]) was 100% throughout.
